From patent publication US20220280581A1, “BENEFICIAL BACTERIA AND SECRETORY IMMUNOGLOBULIN A” (priority 2019, published 2022)

Tests used:
pooled human milk SIgA = experiment: Binding of SIgA to bacteria by flow cytometry; settings: 100 μg SIgA to 1e6 cfu bacteria
Sal4 = experiment: BLI-Sal4 association: concentration dependence and stability; format: binding; settings: FIG. 6, BLI-Sal4
[1] = Protection from simulated gastric digestion in vitro (pepsin, pancreatin): viability by CFU plating and live/dead flow cytometry; settings: for slope of regression plot of viability with SIgA association: post-digestion; for Slope (CFU/% SIgA): regression of viable CFU post-digestion on SIgA association
Procedure: Flow cytometry and immunofluorescence: To measure binding cells were fixed using 4% w/v paraformaldehyde for 30 min, washed with PBS, then incubated with 1% bovine serum albumin (BSA) blocking buffer for 1 h. Cells were stained with 1/100 dilution SYTOT™ 9 (S34854, ThermoFisher) for live cells and goat anti-human IgA conjugated to Alexa 647 fluorophore using 1/50 dilution in 1% BSA (ab96998, Abcam). For flow cytometry, all samples were acquired and analyzed on a FACScan flow cytometer (BD Biosciences, Mountain View, Calif.) using the CellQuest software program. For live/dead analyses following in vitro digestion, cells were stained with SYTOT™ 9 (1/100 dilution) for live cells and propidium iodine (1/1000 dilution) for dead cells or cells with compromised membranes.
Protection from digestion using an in vitro model. To determine the extent to which the SIgA-glycan-mediated-bacterial complexes that included the Ig-bound secretory component (SC) where able to protect bacteria and SIgA from proteolytic degradation, an in vitro model was used. Simulated gastric digestion was performed by resuspending bacteria in 200 ul of 0.1% porcine pepsin (Sigma—Aldrich, St. Louis, Mo.) in PBS at pH 4. Samples were placed in an incubating shaker (New Brunswick Scientific, Edison, N.J.) at 140 rpm at 37° C. for 15 min. Cells were then pelleted and resuspended in 200 ul of 0.04% pancreatin (Sigma— Aldrich) in PBS pH 7, and the samples placed in the incubator shaker at 140 rpm at 37° C. for 5 min. Bacteria were pelleted and washed twice with PBS to remove residual enzymes, then evaluated for viability through CFU serial dilution and spot plating, and with live/dead flow cytometry analysis.

Substance: Bifidobacterium longum ssp. infantis ATCC 15697
- ability to bind to pooled human milk SIgA (pooled human milk SIgA): 92.4%
- increase in SIgA binding when first grown on an HMO substrate (pooled human milk SIgA; HMO-grown): 4.8%
- SIgA association with BLI: concentration dependence (Sal4): concentration dependent
- SIgA association with BLI: stability over time (Sal4; 6 hour): stable over a 6 hour time interval
- viable bacteria post-digestion ([1]; grown on LNnT, 1000 μg SIgA/1e7 CFU): 1.3e5 CFU
- viable bacteria post-digestion ([1]; grown on LNnT, no SIgA): 1.2e4 CFU
- viable bacteria post-digestion ([1]; grown on glucose, 1000 μg SIgA/1e7 CFU): 8.9e5 CFU
- viable bacteria post-digestion ([1]; grown on glucose, no SIgA): 1e5 CFU
- slope of regression plot of viability with SIgA association ([1]; grown on LNnT): 1.2e3 CFU per % population SIgA association
- slope of regression plot of viability with SIgA association ([1]; grown on glucose): 8.2e4 CFU per % population SIgA association
- Slope (CFU/% SIgA) ([1]; substrate 2′FL): 410.1 CFU/% SIgA
- Slope (CFU/% SIgA) ([1]; substrate LNnT): 1214 CFU/% SIgA
- Slope (CFU/% SIgA) ([1]; substrate glucose): 8970 CFU/% SIgA
- Slope (CFU/% SIgA) ([1]; substrate lactose): 76377 CFU/% SIgA
